# Results from PubChem BioAssay (NCI).
#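 Interpolation was linear, between the two tested concentrations surrounding the appropriate level; five concentrations were tested over 48 hours in 96-well plates. GI50 is the concentration that inhibits growth by half. The concentration for full growth arrest is given as TGI.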
# Legend:
# Experiment in all cases: NCI tumour cell line growth inhibition, 48 h
# SK-MEL-5 melanoma = system: SK-MEL-5 melanoma
# SNB-75 CNS = system: SNB-75 CNS
# SW-620 colon = system: SW-620 colon
# HCC-2998 colon = system: HCC-2998 colon
# UO-31 renal = system: UO-31 renal
# HCT-116 colon = system: HCT-116 colon
# COLO 205 colon = system: COLO 205 colon
# MDA-MB-231 breast = system: MDA-MB-231 breast
# CAKI-1 renal = system: CAKI-1 renal
# MCF7 breast = system: MCF7 breast
SMILES,GI50 (SK-MEL-5 melanoma),TGI (SK-MEL-5 melanoma),GI50 (SNB-75 CNS),TGI (SNB-75 CNS),GI50 (SW-620 colon),TGI (SW-620 colon),GI50 (HCC-2998 colon),TGI (HCC-2998 colon),GI50 (UO-31 renal),TGI (UO-31 renal),GI50 (HCT-116 colon),GI50 (COLO 205 colon),TGI (COLO 205 colon),GI50 (MDA-MB-231 breast),TGI (MDA-MB-231 breast),GI50 (CAKI-1 renal),GI50 (MCF7 breast),TGI (MCF7 breast),TGI (HCT-116 colon),TGI (CAKI-1 renal)
COc1cccc(CNc2ncnc3c2ncn3C2OC(CO)C(O)C2O)c1O (stereo unspecified),1.43 µM,> 100 µM,0.174 µM,9.96 µM,0.159 µM,> 100 µM,0.391 µM,> 38.2 µM,0.123 µM,> 28.6 µM,0.0659 µM,0.702 µM,31.1 µM,0.0302 µM,0.111 µM,0.0667 µM,0.369 µM,> 100 µM,,
CCCN(CCC)c1ccc(C=O)c(Cl)c1,14.8 µM,28.6 µM,16.5 µM,55.8 µM,20.9 µM,> 100 µM,19.4 µM,> 100 µM,19.7 µM,> 83.8 µM,2.2 µM,4.2 µM,17 µM,18.9 µM,43.7 µM,15.1 µM,1.8 µM,29.4 µM,19 µM,> 66.9 µM
COc1ccc(-c2c(C#N)c(N)nc(N3CCOCC3)c2C#N)cc1,19.1 µM,45.9 µM,13.5 µM,60.7 µM,50.3 µM,> 100 µM,13 µM,31.6 µM,13.1 µM,49.2 µM,17.7 µM,2.13 µM,26.5 µM,11 µM,35.1 µM,13 µM,21.6 µM,98.9 µM,65.2 µM,31.8 µM
CC(=O)NC1(NC(C)=O)C2CC(C1Cc1ccccc1)C(C)(C)C2C (stereo unspecified),,> 100 µM,,> 100 µM,,> 100 µM,,> 100 µM,,> 100 µM,,,> 100 µM,,> 100 µM,,,> 100 µM,> 100 µM,> 100 µM
Cn1c(=O)n(C)c2cc(CNCCNc3ccnc4cc(Cl)ccc34)ccc21,16.5 µM,30.3 µM,13.1 µM,35.6 µM,34.6 µM,> 100 µM,20.2 µM,52.9 µM,23.3 µM,> 100 µM,17.9 µM,17.2 µM,35.8 µM,11.2 µM,45.2 µM,36.3 µM,28.6 µM,> 100 µM,54.5 µM,> 100 µM
C/C(=C(/c1ccccc1)c1ccc(OCC(O)CNCCN2CCOCC2)cc1)c1ccccc1 (stereo unspecified),1.77 µM,3.19 µM,2.68 µM,15.6 µM,1.77 µM,3.36 µM,1.93 µM,3.43 µM,1.37 µM,2.77 µM,1.86 µM,1.95 µM,4.17 µM,1.78 µM,3.83 µM,1.67 µM,3.61 µM,10.2 µM,4.02 µM,3.49 µM
COc1ccc2c(c1)C(=O)/C(=C/c1cccc(OCC(=O)Nc3nc(C)c(C)s3)c1)O2,0.886 µM,2.81 µM,0.0115 µM,0.037 µM,0.499 µM,1.86 µM,1.53 µM,3.54 µM,0.0222 µM,0.0378 µM,0.17 µM,0.752 µM,2.48 µM,0.121 µM,0.738 µM,0.271 µM,1.63 µM,3.48 µM,0.564 µM,1.16 µM
CC(C)(C)[Si](C)(C)OC1[C@@H](CNC(N)=O)O[C@@H](n2cnc3c(NC(=O)Nc4ccccc4)ncnc32)[C@H]1O[Si](C)(C)C(C)(C)C (stereo partly specified),6.82 µM,13.5 µM,3.73 µM,10.9 µM,0.981 µM,1.87 µM,1.6 µM,6.18 µM,1.92 µM,8.29 µM,0.78 µM,1.23 µM,2.7 µM,5.49 µM,12 µM,1.76 µM,1.83 µM,8.51 µM,1.45 µM,7.12 µM
CC(=O)c1ccc2c(c1)N(CCCN1CCN(CCO)CC1)c1ccccc1S2,1.72 µM,3.14 µM,1.53 µM,3.51 µM,1.82 µM,3.61 µM,1.71 µM,3.2 µM,1.79 µM,5.46 µM,1.81 µM,1.74 µM,3.5 µM,1.96 µM,4.51 µM,1.73 µM,1.78 µM,3.52 µM,3.49 µM,4.22 µM
COc1cc([C@@H]2c3cc4c(cc3[C@H](OC(C)=O)[C@H]3COC(=O)[C@@H]23)OCO4)cc(OC)c1OC,0.298 µM,1.24 µM,,> 100 µM,0.36 µM,> 100 µM,0.285 µM,,0.493 µM,> 100 µM,0.29 µM,0.272 µM,0.678 µM,0.388 µM,3.44 µM,0.537 µM,0.334 µM,> 100 µM,2.63 µM,> 100 µM
O=C(c1ccc2ccccc2c1)c1nc2cc(F)ccc2[n+]([O-])c1C(F)(F)F,24.9 µM,67.6 µM,17 µM,35.9 µM,17.3 µM,37 µM,15.8 µM,31.3 µM,9.42 µM,48.8 µM,18.4 µM,15.9 µM,38.1 µM,18.8 µM,38 µM,4.29 µM,35.6 µM,> 100 µM,33.1 µM,17.6 µM
c1ccc(-c2nc3n(c2-c2ccc4c(c2)OCO4)CCC3)nc1,2.05 µM,8.86 µM,6.42 µM,> 25 µM,8.47 µM,> 25 µM,10.4 µM,> 25 µM,0.611 µM,8.58 µM,8.16 µM,9.15 µM,> 25 µM,4.25 µM,> 25 µM,0.62 µM,7.89 µM,> 21.3 µM,> 25 µM,> 25 µM
CN(Cc1ccc(F)cc1)c1ccc(CO)c(Cl)c1,8.6 µM,22.8 µM,18.4 µM,89.5 µM,5.14 µM,> 100 µM,14.9 µM,57 µM,7.53 µM,> 65.1 µM,0.412 µM,5.86 µM,19.8 µM,28.7 µM,> 100 µM,2.49 µM,1.23 µM,21.5 µM,11.9 µM,45.8 µM
C=C1C(=O)O[C@H]2[C@H]1CC/C(COC(=O)N[C@H]1C[C@H](O[C@H]3C[C@](O)(C(=O)CO)Cc4c(O)c5c(c(O)c43)C(=O)c3c(OC)cccc3C5=O)O[C@@H](C)[C@H]1O)=C\CC[C@@]1(C)O[C@@H]21,8.1 µM,18.1 µM,6.97 µM,24.1 µM,1.15 µM,3 µM,11.8 µM,28.7 µM,> 50 µM,> 50 µM,1.72 µM,1.75 µM,6.98 µM,3.21 µM,10.7 µM,7.76 µM,1.86 µM,9.86 µM,5.58 µM,> 50 µM
COc1cc(OCc2cccc(-c3ccccc3)c2C)cc(OC)c1CN1CCCCC1C(=O)NCCOCCOCCN (stereo unspecified),1.76 µM,3.21 µM,2.22 µM,17.7 µM,1.9 µM,3.87 µM,2.39 µM,5.85 µM,10.6 µM,22.9 µM,2.04 µM,1.82 µM,3.7 µM,1.8 µM,3.84 µM,1.94 µM,1.92 µM,3.92 µM,4.64 µM,5.96 µM
CCN1[C@@H](C(=O)NC23CCC(C(=O)O)(CC2)CC3)[C@H](c2cccc(Cl)c2F)[C@]2(C(=O)Nc3cc(Cl)ccc32)C12CCCCC2,1.39 µM,2.75 µM,1.91 µM,14.8 µM,3.92 µM,17.1 µM,2.39 µM,6.89 µM,0.0779 µM,3.6 µM,0.104 µM,3.02 µM,10.6 µM,5.85 µM,27.4 µM,< 0.0149 µM,0.0523 µM,3.97 µM,3.11 µM,0.817 µM
N=c1ccc2nc3ccc(N)cc3sc-2c1,1.7 µM,3.53 µM,3.77 µM,16.4 µM,3.92 µM,23.5 µM,6.82 µM,97.7 µM,26 µM,> 100 µM,2.67 µM,2.25 µM,12.5 µM,3.56 µM,20.3 µM,4.19 µM,3.5 µM,13.1 µM,10.5 µM,20.3 µM
